Columns and labels:
[1] = 101 kPa, Liquid
[2] = refractive index (Na D-line) (dimensionless); conditions: 293.15 K; 101.33 kPa; Liquid; Standard Abbe refractometry
[3] = xn = mol fraction of the nth substance listed; conditions: 101 kPa, Liquid

CCCCCCCCO [octan-1-ol]
[1]
Conditions | mass density [kg/m3] | viscosity [mPa·s]
293.15 K | 824.99 | 9.219
303.15 K | 818.09 | 6.358

Conditions | refractive index
[2] | 1.42958

CCCCCCO [hexan-1-ol] + BrC(Br)C(Br)Br
[3], x2 = 0
Conditions | mass density [kg/m3] | viscosity [mPa·s]
293.15 K | 818.92 | 5.37
303.15 K | 811.73 | 3.744

CCCCCO [pentan-1-ol] + BrC(Br)C(Br)Br
[3], x2 = 0
Conditions | mass density [kg/m3] | viscosity [mPa·s]
293.15 K | 815.03 | 4.052
303.15 K | 807.6 | 2.926

CCCCCCCCCCO [decan-1-ol] + BrC(Br)C(Br)Br
[3], x2 = 0
Conditions | mass density [kg/m3] | viscosity [mPa·s]
293.15 K | 829.7 | 14.54
303.15 K | 822.85 | 9.676

BrC(Br)C(Br)Br [1,1,2,2-tetrabromoethane] + CCCCCO
[3]
Conditions | mass density, 293.15 K [kg/m3] | mass density, 303.15 K [kg/m3] | viscosity, 293.15 K [mPa·s] | viscosity, 303.15 K [mPa·s]
x1 = 0.1009 | 1048.36 | 1038.85 | 4.543 | 3.24
x1 = 0.2014 | 1276.63 | 1265.1 | 5.078 | 3.639
x1 = 0.3004 | 1497.47 | 1484.08 | 5.653 | 4.078
x1 = 0.4003 | 1716.5 | 1701.36 | 6.278 | 4.563
x1 = 0.5014 | 1934.64 | 1917.88 | 6.942 | 5.089
x1 = 0.6001 | 2144.16 | 2125.93 | 7.621 | 5.631
x1 = 0.7001 | 2353.22 | 2333.58 | 8.346 | 6.217
x1 = 0.7998 | 2558.61 | 2537.64 | 9.119 | 6.846
x1 = 0.8997 | 2761.73 | 2739.49 | 9.968 | 7.555
x1 = 1 | 2963.2 | 2939.86 | 10.94 | 8.413

BrC(Br)C(Br)Br [1,1,2,2-tetrabromoethane] + CCCCCCCCCCO
[3]
Conditions | mass density, 293.15 K [kg/m3] | mass density, 303.15 K [kg/m3] | viscosity, 293.15 K [mPa·s] | viscosity, 303.15 K [mPa·s]
x1 = 0.1023 | 968.19 | 960.09 | 14.09 | 9.449
x1 = 0.202 | 1114.37 | 1104.97 | 13.66 | 9.246
x1 = 0.3012 | 1272.36 | 1261.57 | 13.24 | 9.048
x1 = 0.4012 | 1446.62 | 1434.34 | 12.82 | 8.863
x1 = 0.5007 | 1636.66 | 1622.78 | 12.43 | 8.701
x1 = 0.6006 | 1847.04 | 1831.45 | 12.06 | 8.57
x1 = 0.7011 | 2081.74 | 2064.32 | 11.74 | 8.482
x1 = 0.8006 | 2340.68 | 2321.36 | 11.45 | 8.437
x1 = 0.9006 | 2632.79 | 2611.47 | 11.19 | 8.422
x1 = 1 | 2963.2 | 2939.86 | 10.94 | 8.413

CCCCCCCCO [octan-1-ol] + BrC(Br)C(Br)Br
[3], x2 = 0
Conditions | mass density [kg/m3] | viscosity [mPa·s]
293.15 K | 824.99 | 9.219
303.15 K | 818.09 | 6.358

CCCCCCCCCCO [decan-1-ol]
[1]
Conditions | mass density [kg/m3] | viscosity [mPa·s]
293.15 K | 829.7 | 14.54
303.15 K | 822.85 | 9.676

Conditions | refractive index
[2] | 1.43706

CCCCCCCO [heptan-1-ol] + BrC(Br)C(Br)Br
[3], x2 = 0
Conditions | mass density [kg/m3] | viscosity [mPa·s]
293.15 K | 822.39 | 7.058
303.15 K | 815.41 | 4.821

BrC(Br)C(Br)Br [1,1,2,2-tetrabromoethane] + CCCCCCO
[3]
Conditions | mass density, 293.15 K [kg/m3] | mass density, 303.15 K [kg/m3] | viscosity, 293.15 K [mPa·s] | viscosity, 303.15 K [mPa·s]
x1 = 0.1001 | 1021.6 | 1012.63 | 5.764 | 4.031
x1 = 0.2007 | 1227.75 | 1216.94 | 6.116 | 4.348
x1 = 0.3004 | 1434.26 | 1421.62 | 6.633 | 4.709
x1 = 0.4004 | 1643.89 | 1629.48 | 7.123 | 5.112
x1 = 0.5005 | 1856.54 | 1840.42 | 7.644 | 5.542
x1 = 0.6008 | 2072.22 | 2054.51 | 8.195 | 6.009
x1 = 0.6999 | 2288.24 | 2269.06 | 8.786 | 6.508
x1 = 0.8012 | 2512.37 | 2491.76 | 9.433 | 7.068
x1 = 0.9001 | 2734.51 | 2712.53 | 10.14 | 7.699
x1 = 1 | 2963.2 | 2939.86 | 10.94 | 8.413

BrC(Br)C(Br)Br [1,1,2,2-tetrabromoethane]
[1]
Conditions | mass density [kg/m3] | viscosity [mPa·s]
293.15 K | 2963.2 | 10.94
303.15 K | 2939.86 | 8.413

Conditions | refractive index
[2] | 1.63535

CCCCCCCO [heptan-1-ol]
[1]
Conditions | mass density [kg/m3] | viscosity [mPa·s]
293.15 K | 822.39 | 7.058
303.15 K | 815.41 | 4.821

Conditions | refractive index
[2] | 1.42397

BrC(Br)C(Br)Br [1,1,2,2-tetrabromoethane] + CCCCCCCCO
[3]
Conditions | mass density, 293.15 K [kg/m3] | mass density, 303.15 K [kg/m3] | viscosity, 293.15 K [mPa·s] | viscosity, 303.15 K [mPa·s]
x1 = 0.099 | – | 980.93 | – | 6.446
x1 = 0.101 | 989.26 | – | 9.28 | –
x1 = 0.1999 | – | 1151.32 | – | 6.535
x1 = 0.2013 | 1161.15 | – | 9.347 | –
x1 = 0.2997 | 1338.99 | – | 9.426 | –
x1 = 0.3001 | – | 1327.63 | – | 6.646
x1 = 0.3994 | 1529.17 | – | 9.527 | –
x1 = 0.3995 | – | 1516.19 | – | 6.774
x1 = 0.5002 | 1732.98 | – | 9.661 | –
x1 = 0.5006 | – | 1718.29 | – | 6.947
x1 = 0.5987 | – | 1931.52 | – | 7.155
x1 = 0.6003 | 1947.95 | – | 9.831 | –
x1 = 0.6993 | – | 2157.22 | – | 7.398
x1 = 0.6998 | 2175.4 | – | 10.04 | –
x1 = 0.799 | – | 2399.36 | – | 7.708
x1 = 0.7998 | 2419.28 | – | 10.32 | –
x1 = 0.8992 | – | 2662.77 | – | 8.065
x1 = 0.9011 | 2684.42 | – | 10.63 | –
x1 = 1 | 2963.2 | 2939.86 | 10.94 | 8.413

CCCCCO [pentan-1-ol]
[1]
Conditions | mass density [kg/m3] | viscosity [mPa·s]
293.15 K | 815.03 | 4.052
303.15 K | 807.6 | 2.926

Conditions | refractive index
[2] | 1.40995

CCCCCCO [hexan-1-ol]
[1]
Conditions | mass density [kg/m3] | viscosity [mPa·s]
293.15 K | 818.92 | 5.37
303.15 K | 811.73 | 3.744

Conditions | refractive index
[2] | 1.41826

BrC(Br)C(Br)Br [1,1,2,2-tetrabromoethane] + CCCCCCCO
[3]
Conditions | mass density, 293.15 K [kg/m3] | mass density, 303.15 K [kg/m3] | viscosity, 293.15 K [mPa·s] | viscosity, 303.15 K [mPa·s]
x1 = 0.099 | 1001.11 | 992.57 | 7.314 | 5.033
x1 = 0.1999 | 1189.38 | 1179.18 | 7.577 | 5.262
x1 = 0.3001 | 1383.2 | 1371.29 | 7.86 | 5.513
x1 = 0.3995 | 1582.25 | 1568.62 | 8.171 | 5.801
x1 = 0.5006 | 1792.24 | 1776.88 | 8.531 | 6.128
x1 = 0.5987 | 2003.6 | 1986.59 | 8.915 | 6.484
x1 = 0.6993 | 2229.07 | 2210.42 | 9.351 | 6.886
x1 = 0.799 | 2461.79 | 2441.56 | 9.836 | 7.336
x1 = 0.8992 | 2706 | 2684.21 | 10.38 | 7.862
x1 = 1 | 2963.2 | 2939.86 | 10.94 | 8.413
